From PMC3993905 (2014) come the findings set out here.

For this data set, the system named is MMP-2. Description: active MMP-2. The settings on record: human, room temperature, up to 6 h.

Regarding Ac-KKYGPQGIAGQYKK-NH2, the cleaved bond result is “G-I, 6 h”.
Then Ac-KKYIPVSLRSGYKK-NH2, with “S-L, 6 h”.
